Species: Rattus norvegicus
Assay: DrugMatrix - Regimen: Daily Repeat
Format: toxicity, organism-based, Sprague-Dawley
Set-up: regimen Daily Repeat, gender Male, age 6-8 weeks
Conditions: in vivo, po, route oral GAVAGE, vehicle .5 % CMC; for URIC ACID / ALANINE AMINOTRANSFERASE / ALBUMIN / ALKALINE PHOSPHATASE / ASPARTATE AMINOTRANSFERASE / BLOOD UREA NITROGEN / CARBON DIOXIDE / CHLORIDE / CHOLESTEROL / CREATINE PHOSPHOKINASE / CREATININE / GLUCOSE / LACTATE DEHYDROGENASE / LIPASE / PHOSPHORUS / POTASSIUM / SODIUM / TOTAL BILIRUBIN / TOTAL PROTEIN: tissue Plasma; for ABSOLUTE BASOPHIL / ABSOLUTE EOSINOPHIL / ABSOLUTE LYMPHOCYTE / ABSOLUTE MONOCYTE / ABSOLUTE SEGMENTED NEUTROPHIL / BASOPHIL / EOSINOPHIL / ERYTHROCYTE COUNT / HEMATOCRIT / HEMOGLOBIN / LEUKOCYTE COUNT / LYMPHOCYTE / MEAN CORPUSCULAR HEMOGLOBIN / MEAN CORPUSCULAR HEMOGLOBIN CONCENTRATION / MONOCYTE / NEUTROPHIL / NUCLEATED RED BLOOD CELLS / PLATELET COUNT: tissue Blood
[1] = 10 mg/kg, 120 h, dose level Low, time 5 day
[2] = 269 mg/kg, 72 h, dose level High, time 3 day
[3] = 269 mg/kg, 120 h, dose level High, time 5 day

## O=C1C(CC[S+]([O-])c2ccccc2)C(=O)N(c2ccccc2)N1c1ccccc1 (stereo unspecified) [SULFINPYRAZONE]
10 mg/kg, 72 h, dose level Low, time 3 day
  URIC ACID: 2 mg/dL
[1]
  ABSOLUTE BASOPHIL: 0 CELLS/uL
  ABSOLUTE EOSINOPHIL: 0 CELLS/uL
  ABSOLUTE LYMPHOCYTE: 8238.33 CELLS/uL
  ABSOLUTE MONOCYTE: 0 CELLS/uL
  ABSOLUTE SEGMENTED NEUTROPHIL: 761.67 CELLS/uL
  BASOPHIL: 0%
  EOSINOPHIL: 0%
  ERYTHROCYTE COUNT: 5.27 x10E6/uL
  HEMATOCRIT: 33.27%
  HEMOGLOBIN: 13.03 G/DL
  LEUKOCYTE COUNT: 9 x10E3/uL
  LYMPHOCYTE: 91.67%
  MEAN CORPUSCULAR HEMOGLOBIN: 24.77 pg
  MEAN CORPUSCULAR HEMOGLOBIN CONCENTRATION: 39.17 G/DL
  MONOCYTE: 0%
  NEUTROPHIL: 8.33%
  NUCLEATED RED BLOOD CELLS: 0 /100WBC
  PLATELET COUNT: 1182 x10E3/uL
  ALANINE AMINOTRANSFERASE: 51.33 u/L
  ALBUMIN: 4.23 G/DL
  ALKALINE PHOSPHATASE: 307 u/L
  ASPARTATE AMINOTRANSFERASE: 86.67 u/L
  BLOOD UREA NITROGEN: 15.33 mg/dL
  CARBON DIOXIDE: 30 mmol/L
  CHLORIDE: 102 MEQ/L
  CHOLESTEROL: 63.67 mg/dL
  CREATINE PHOSPHOKINASE: 204 u/L
  CREATININE: 0.19 mg/dL
  GLUCOSE: 139.33 mg/dL
  LACTATE DEHYDROGENASE: 126 u/L
  LIPASE: 9 u/L
  PHOSPHORUS: 11.67 mg/dL
  POTASSIUM: 6.44 MEQ/L
  SODIUM: 148.53 MEQ/L
  TOTAL BILIRUBIN: 0.27 mg/dL
  TOTAL PROTEIN: 6.3 G/DL
  URIC ACID: 1 mg/dL
[2]
  ABSOLUTE BASOPHIL: 0 CELLS/uL
  ABSOLUTE EOSINOPHIL: 0 CELLS/uL
  ABSOLUTE LYMPHOCYTE: 15229.67 CELLS/uL
  ABSOLUTE MONOCYTE: 176.67 CELLS/uL
  ABSOLUTE SEGMENTED NEUTROPHIL: 1627 CELLS/uL
  BASOPHIL: 0%
  EOSINOPHIL: 0%
  ERYTHROCYTE COUNT: 4.48 x10E6/uL
  HEMATOCRIT: 28.7%
  HEMOGLOBIN: 11.63 G/DL
  LEUKOCYTE COUNT: 17.03 x10E3/uL
  LYMPHOCYTE: 89.67%
  MEAN CORPUSCULAR HEMOGLOBIN: 26.03 pg
  MEAN CORPUSCULAR HEMOGLOBIN CONCENTRATION: 40.6 G/DL
  MONOCYTE: 1%
  NEUTROPHIL: 9.33%
  NUCLEATED RED BLOOD CELLS: 0 /100WBC
  PLATELET COUNT: 1194 x10E3/uL
  ALBUMIN: 3.87 G/DL
  ALKALINE PHOSPHATASE: 319.33 u/L
  ASPARTATE AMINOTRANSFERASE: 92.67 u/L
  BLOOD UREA NITROGEN: 16 mg/dL
  CARBON DIOXIDE: 21.33 mmol/L
  CHLORIDE: 105.67 MEQ/L
  CHOLESTEROL: 78.67 mg/dL
  CREATINE PHOSPHOKINASE: 438 u/L
  CREATININE: 0.18 mg/dL
  GLUCOSE: 147 mg/dL
  LACTATE DEHYDROGENASE: 291 u/L
  LIPASE: 10.33 u/L
  PHOSPHORUS: 11.97 mg/dL
  POTASSIUM: 6.1 MEQ/L
  SODIUM: 145.03 MEQ/L
  TOTAL BILIRUBIN: 0.23 mg/dL
  TOTAL PROTEIN: 5.5 G/DL
  URIC ACID: 1.4 mg/dL
[3]
  ABSOLUTE BASOPHIL: 0 CELLS/uL
  ABSOLUTE EOSINOPHIL: 0 CELLS/uL
  ABSOLUTE LYMPHOCYTE: 20046 CELLS/uL
  ABSOLUTE MONOCYTE: 55 CELLS/uL
  ABSOLUTE SEGMENTED NEUTROPHIL: 2899 CELLS/uL
  BASOPHIL: 0%
  EOSINOPHIL: 0%
  ERYTHROCYTE COUNT: 5.28 x10E6/uL
  HEMATOCRIT: 32.4%
  HEMOGLOBIN: 13.17 G/DL
  LEUKOCYTE COUNT: 23 x10E3/uL
  LYMPHOCYTE: 87.33%
  MEAN CORPUSCULAR HEMOGLOBIN: 24.9 pg
  MEAN CORPUSCULAR HEMOGLOBIN CONCENTRATION: 40.63 G/DL
  MONOCYTE: 0.33%
  NEUTROPHIL: 12.33%
  NUCLEATED RED BLOOD CELLS: 0 /100WBC
  PLATELET COUNT: 1314.67 x10E3/uL
  ALANINE AMINOTRANSFERASE: 59.33 u/L
  ALBUMIN: 4.13 G/DL
  ALKALINE PHOSPHATASE: 291.33 u/L
  ASPARTATE AMINOTRANSFERASE: 70.33 u/L
  BLOOD UREA NITROGEN: 15 mg/dL
  CARBON DIOXIDE: 26.67 mmol/L
  CHLORIDE: 102.33 MEQ/L
  CHOLESTEROL: 77 mg/dL
  CREATINE PHOSPHOKINASE: 224.33 u/L
  CREATININE: 0.25 mg/dL
  GLUCOSE: 143.67 mg/dL
  LACTATE DEHYDROGENASE: 78.33 u/L
  LIPASE: 9 u/L
  PHOSPHORUS: 12.43 mg/dL
  POTASSIUM: 6.73 MEQ/L
  SODIUM: 147 MEQ/L
  TOTAL BILIRUBIN: 0.23 mg/dL
  TOTAL PROTEIN: 6 G/DL
  URIC ACID: 1.53 mg/dL

— ChEMBL document CHEMBL3885881, “DrugMatrix”
